Assays:
[1] = Metabolic stability in mouse liver microsomes assessed as half life preincubated for 5 mins followed by NADPH addition and measured upto 60 mins by LC-MS/MS analysis; type: ADME, Microsome; conditions: time < 65 min
[2] = Metabolic stability in human liver microsomes assessed as half life preincubated for 5 mins followed by NADPH addition and measured upto 60 mins by LC-MS/MS analysis; type: ADME, Microsome; conditions: time < 65 min
[3] = AUC (0 to t) in male C57BL/6 mouse at 30 mg/kg, ip measured upto 1440 mins by LC-MS/MS analysis; type: ADME, organism-based; conditions: in vivo
[4] = MRT (0 to t) in male C57BL/6 mouse at 30 mg/kg, ip measured upto 1440 mins by LC-MS/MS analysis; type: ADME, organism-based; conditions: in vivo
[5] = Tmax in male C57BL/6 mouse at 30 mg/kg, ip measured upto 1440 mins by LC-MS/MS analysis; type: ADME, organism-based; conditions: in vivo
[6] = Half life in male C57BL/6 mouse at 30 mg/kg, ip measured upto 1440 mins by LC-MS/MS analysis; type: ADME, organism-based; conditions: in vivo
[7] = Cmax in male C57BL/6 mouse at 30 mg/kg, ip measured upto 1440 mins by LC-MS/MS analysis; type: ADME, organism-based; conditions: in vivo
[8] = Apparent oral clearance in male C57BL/6 mouse at 30 mg/kg, ip measured upto 1440 mins by LC-MS/MS analysis; type: ADME, organism-based; conditions: in vivo, read-out: CLz/F (converted)
[9] = Drug distribution in C57BL/6 mouse colon at 30 mg/kg, ip measured after 0.5 hrs by LC-MS/MS analysis; type: ADME, organism-based; conditions: read-out: Drug uptake
[10] = Drug distribution in C57BL/6 mouse colon at 30 mg/kg, ip measured after 2 hrs by LC-MS/MS analysis; type: ADME, organism-based; conditions: read-out: Drug uptake
[11] = Drug distribution in C57BL/6 mouse colon at 30 mg/kg, ip measured after 8 hrs by LC-MS/MS analysis; type: ADME, organism-based; conditions: read-out: Drug uptake
[12] = Drug distribution in C57BL/6 mouse colon at 30 mg/kg, ip measured after 24 hrs by LC-MS/MS analysis; type: ADME, organism-based; conditions: read-out: Drug uptake
[13] = Drug distribution in C57BL/6 mouse plasma at 30 mg/kg, ip measured after 0.5 hrs by LC-MS/MS analysis; type: ADME, organism-based
[14] = Drug distribution in C57BL/6 mouse plasma at 30 mg/kg, ip measured after 2 hrs by LC-MS/MS analysis; type: ADME, organism-based

Structure (SMILES) | half-life [1] [min] | half-life [2] [min] | also measured
C=C1C(=O)O[C@@H]2C[C@@]3(C)CC[C@@H](OC(=O)/C=C/C(=O)c4ccccc4)C(=C)[C@@H]3C[C@H]12 | 19.2 | 10.4 | 
C=C1C(=O)O[C@@H]2C[C@@]3(C)CCCC(=C)[C@@H]3C[C@H]12 [ISOALANTOLACTONE] | 9.1 | 4.47 | AUC(0-t) at 24 h [3]: 230 ng·h/mL; MRT last at 24 h [4]: 1.84 h; Tmax [5]: 13.2 min; half-life [6]: 127 min; Cmax [7]: 159 ng/mL; CL/F [8]: 2020 mL/min/kg; concentration at 0.5 h [9]: 3320 ng/g; concentration at 2 h [10]: 293 ng/g; concentration at 8 h [11]: 3120 ng/g; concentration at 24 h [12]: 26.9 ng/g; concentration at 0.5 h [13]: 27.4 ng/mL; concentration at 2 h [14]: 7.71 ng/mL
C=C1C(=O)O[C@@H]2C[C@@]3(C)CC[C@@H](OC(=O)c4cc(Cl)cnc4Cl)C(=C)[C@@H]3C[C@H]12 | 12.6 | 95.7 | 
C=C1C(=O)O[C@@H]2C[C@@]3(C)CC[C@@H](OC(=O)c4c(Cl)ccnc4Cl)C(=C)[C@@H]3C[C@H]12 | 47.1 | 118 | 

Now from value to compound, other results behind:

half-life [1] [min] | half-life [2] [min] | Structure (SMILES) | also measured
27.2 | 20.6 | C=C1C(=O)O[C@@H]2C[C@@]3(C)CC[C@@H](OC(=O)/C=C/C(=O)c4ccc(C(F)(F)F)cc4)C(=C)[C@@H]3C[C@H]12 | 
44.1 | 31.1 | C=C1C(=O)O[C@@H]2C[C@@]3(C)CC[C@@H](OC(=O)/C=C/C(=O)c4ccc(F)cc4)C(=C)[C@@H]3C[C@H]12 | 

Source: ChEMBL document CHEMBL5543172, “Novel Isoalantolactone-Based Derivatives as Potent NLRP3 Inflammasome Inhibitors: Design, Synthesis, and Biological Characterization” (J Med Chem, 2024)
